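Method: 48-hour compound exposure of cells in 96-well plates, five concentrations, linear interpolation of endpoints. Here, GI50 denotes the concentration required for 50% inhibition of growth. Definition used: TGI = concentration required for complete inhibition of growth.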 Where a SMILES comes first, the peptide text is derived from it. The star is where a group is joined. Boc = CC(C)(C)OC(=O)*
Legend:
Assay in all cases: inhibition of tumour cell growth, NCI panel, 48 h
A549 NSCLC = test system: A549 NSCLC
CCRF-CEM leukemia = test system: CCRF-CEM leukemia
DU-145 prostate = test system: DU-145 prostate
KM12 colon = test system: KM12 colon
MDA-MB-231 breast = test system: MDA-MB-231 breast
NCI-H23 lung = test system: NCI-H23 lung
OVCAR-4 ovarian = test system: OVCAR-4 ovarian
OVCAR-8 ovarian = test system: OVCAR-8 ovarian
SK-MEL-5 melanoma = test system: SK-MEL-5 melanoma
MDA-N = test system: MDA-N

Row | Compound | GI50 (A549 NSCLC) [µM] | TGI (A549 NSCLC) [µM] | GI50 (CCRF-CEM leukemia) [µM] | TGI (CCRF-CEM leukemia) [µM] | GI50 (DU-145 prostate) [µM] | TGI (DU-145 prostate) [µM] | GI50 (KM12 colon) [µM] | TGI (KM12 colon) [µM] | GI50 (MDA-MB-231 breast) [µM] | TGI (MDA-MB-231 breast) [µM] | GI50 (NCI-H23 lung) [µM] | TGI (NCI-H23 lung) [µM] | GI50 (OVCAR-4 ovarian) [µM] | TGI (OVCAR-4 ovarian) [µM] | GI50 (OVCAR-8 ovarian) [µM] | TGI (OVCAR-8 ovarian) [µM] | GI50 (SK-MEL-5 melanoma) [µM] | TGI (SK-MEL-5 melanoma) [µM] | TGI (MDA-N) [µM]
1 | O=C(O)Cn1c2c(c3c1-c1ccccc1C3=O)C(=O)CCC2 | > 100 | > 100 | 32 | > 100 | > 100 | > 100 | > 100 | > 100 | > 100 | > 100 | > 100 | > 100 | > 100 | > 100 | > 100 | > 100 | > 100 | > 100 | 
2 | Cc1c(OCc2cccc3ccccc23)ccc2c(=O)cc(SCCN3CCOCC3)oc12 |  | > 100 |  | > 100 |  | > 100 |  | > 100 |  | > 100 |  | > 100 |  | > 100 |  | > 100 |  | > 100 | 
3 | O=C1CCCCC/C1=C\c1cccc(F)c1 |  | > 100 |  | 81.4 |  | > 100 |  | > 100 |  | > 100 |  |  |  |  |  | > 100 |  | > 100 | > 100
4 | Cc1ccc(N=C/C=C(\Nc2ccc(C)cc2)c2ccc3ccccc3c2)cc1 |  | 13.2 |  | 0.558 |  | 10.7 |  | 4.43 |  | 2.12 |  | 3.9 |  | 11.2 |  | > 100 |  | 12 | 
5 | S=C1C(=Nc2ccccc2)N(c2ccccc2)/C(=N\c2cccc[n+]2Cc2ccccc2)N1c1ccccc1 |  | 52.7 |  |  |  | > 100 |  | 32 |  | 31.3 |  | 35.4 |  |  |  | 38.7 |  | 26.7 | 25
6 | CCOC(=O)C1CCC(=O)N1C(=O)c1cccc(Cl)c1 (configuration not stated) |  | > 100 |  | > 100 |  | > 100 |  | > 100 |  | > 100 |  | > 100 |  |  |  | > 100 |  | > 100 | > 100
7 | O=c1cc(N2CCOCC2)n2c(ccc3ccccc32)n1 |  | > 100 |  | > 100 |  |  |  | > 100 |  | > 100 |  | > 100 |  |  |  | > 100 |  | > 100 | 63
8 | N/N=C(/N)SCCCCCCCCCCS/C(N)=N/N |  | 50.3 |  | > 100 |  | > 100 |  | 67.3 |  | 85.2 |  | > 100 |  |  |  | 39.3 |  | 49 | 
9 | O=c1[nH]nc(-c2ccccc2)c2[nH]c3c(c12)Cc1ccccc1-3 |  | > 100 |  | > 100 |  | > 100 |  | > 83.5 |  |  |  | > 100 |  | > 100 |  | > 100 |  |  | > 27.4
10 | Cc1nc2ccc(Br)cc2c(=O)n1-c1ccc(N)cc1 |  | > 100 |  | > 100 |  | > 100 |  | > 100 |  | > 100 |  |  |  | > 100 |  | > 100 |  | > 100 | > 100
11 | O=C1c2ccncc2C(=O)c2c(O)ccc(O)c21 |  | 18.1 |  | 32.7 |  |  |  | 32.8 |  |  |  |  |  | 23.6 |  | 21.4 |  |  | 
12 | Oc1c(Cl)cc2cc1-c1cc(cc(Cl)c1O)CCc1c(cc(Cl)c(O)c1Cl)-c1cc(Cl)c(c(Cl)c1O)/C=C\2 |  | 23.9 |  | > 50 |  | 16.1 |  | 15.1 |  |  |  | 33.6 |  | 24 |  | 16.1 |  | 14.9 | 
13 | O=c1[nH]n(CCc2ccccc2CCl)c2ccc([N+](=O)[O-])cc12 |  | > 100 |  | > 100 |  | > 100 |  | > 100 |  | > 100 |  | > 100 |  | 92 |  | > 100 |  | > 100 | 
14 | O=Nc1c(-c2c(O)[nH]c3ccc(I)cc23)[nH]c2ccccc12 |  | > 30.4 |  | 5.07 |  | > 24.6 |  |  |  | 9.77 |  | > 100 |  | 14.8 |  | > 43.4 |  | > 100 | 47.2
15 | O=C1Nc2cccc(Cl)c2/C1=C\c1c(-c2ccccc2)nc2n1CCS2 |  | 49.1 |  | 33.1 |  | 44.9 |  | 52.1 |  | 49 |  | 88.7 |  |  |  | 83.6 |  | 51.6 | 40.6
16 | Cc1cc2c(=O)c3ccc(Cl)cc3[nH]c2c(C(N)=O)c1C |  | > 100 |  | > 100 |  |  |  | > 100 |  |  |  | > 100 |  | > 100 |  | > 100 |  | > 100 | 
17 | Cc1cc2c(c(C(=O)NCC(=O)O)c1)Oc1c(cc(C)cc1C(=O)NCC(=O)O)S2 |  | > 100 |  | > 100 |  | > 100 |  | > 100 |  | > 100 |  | > 100 |  | > 100 |  | > 100 |  |  | > 100
18 | Cn1c2ccccc2n2c3ncccc3c(=O)cc12 |  | > 100 |  |  |  | > 100 |  | > 100 |  | > 100 |  | > 100 |  | > 100 |  | > 100 |  | > 100 | > 100
19 | COC(=O)C(Cc1c[nH]c2ccccc12)NC(=O)C(Cc1c[nH]c2ccccc12)NC(=O)C(Cc1c[nH]c2ccccc12)NC(=O)C(Cc1c[nH]c2ccccc12)NC(=O)C(Cc1c[nH]c2ccccc12)NC(=O)C(Cc1c[nH]c2ccccc12)NC(=O)C(Cc1c[nH]c2ccccc12)NC(=O)OC(C)(C)C (configuration not stated) (Boc-WWWWWWW-OMe; configuration not given here) |  | > 100 |  | > 100 |  | > 100 |  |  |  | > 100 |  | > 100 |  | > 100 |  | > 100 |  | > 100 | > 100
20 | Cc1cc(=O)[nH]c(NNC(C#N)c2ccccc2O)n1 (configuration not stated) |  | > 100 |  | > 100 |  |  |  | > 100 |  |  |  | > 100 |  | > 100 |  | > 100 |  | 75.9 | 
21 | Clc1ccc(-c2nn3c(COc4cccc(OCc5nnc6sc(-c7ccc(Cl)cc7)nn56)c4)nnc3s2)cc1 |  | 73.2 |  |  |  | 74.3 |  | > 100 |  | > 100 |  | 71.3 |  | 27.6 |  | > 100 |  | 50.7 | 36.4
22 | [N-]=[N+]=Nc1nc2ccccc2c(N=[N+]=[N-])c1Cl |  | > 100 |  | > 100 |  | > 100 |  | > 100 |  | > 100 |  | > 100 |  | > 100 |  |  |  | > 100 | > 100
23 | COc1cc(S(=O)(=O)Nc2ccc(-c3csc(N4C(=O)C(Cl)C4c4ccccc4O)n3)cc2)ccc1Cl (configuration not stated) |  | > 100 |  | 9.13 |  | 66.6 |  | > 100 |  |  |  | 80.5 |  | 70 |  | > 100 |  | > 100 | > 100

Source: PubChem BioAssay (NCI)
